Test results published in patent publication US11590101B2, “Use of a composition comprising 7-hydroxymatairesinol” (LINNEA S.A., priority 2017, dated 2023).

What was measured:
[1] = Oxidative stress evaluation (plasma GSH/GSSG, Glutathione assay kit); type: in vivo, rat; conditions: POST group; not reaching statistical significance
Protocol: Plasma levels of reduced (GSH) and oxidized (GSSG) glutathione were estimated by using a biochemical Glutathione assay kit (Cayman Chemical), as an index of antioxidant effect of HMR treatment.
Results were expressed as a GSH/GSSG ratio.
Since no significant difference in neuroinflammation was observed between vehicle-treated animals and animals that received HMR before the intra-striatal injection of 6-OHDA, oxidative stress was evaluated only in the groups treated with HMR after 6-OHDA infusion.

[2] = tested on: rodent model of Parkinson's disease-like nigrostriatal neurodegeneration caused by stereotaxic injection of 6-OHDA; test: Nigrostriatal damage evaluation by TH immunohistochemistry in 6-OHDA model; type: in vivo, rat
[3] = HMR plasma levels assay (LC-MS/MS); type: in vivo; conditions: rat, oral, rats fed 4 weeks with 5% sucrose enriched food with HMR (10 mg/Kg per day), all active treatment groups
Protocol: Concentration of HMR and its major metabolite enterolactone was measured in plasma samples (50 μL) from rats fed for 4 weeks with 5% sucrose enriched food with HMR, using an LC-MS/MS system (AP14500 Qtrap ABSciex).
Calibration curves in the range from 0.1 ng/mL to 100 ng/mL were obtained from measurements on control samples containing the pure analytes, prepared from stock solutions of HMR and enterolactone in MeOH at the concentration of 1 mg/mL. Said stock solutions were diluted in acetonitrile (ACN) at a concentration of 250 μg/mL, then working solutions were prepared by sequential dilution in ACN.
45 μL of plasma and 5 μL of working solution were added to 300 μL of an ACN solution containing the internal standard catechin (conc. 200 ng/mL). After mixing, samples were centrifuged for 5 min at 3000 g at 5° C., and injected into LC-MS/MS.
The plasma samples from the in vivo treatment were prepared subjecting 50 μl of sample to centrifugation for 5 min at 3000 g at 5° C., and were injected into LC-MS/MS.
Calibration curves allowed determining, by comparison, the amount of each analytes in the plasma samples obtained from the rats of the study.

[4] = tested on: microglia in the lesioned SNc; test: Analysis of microglia polarization (CD32+ M1 / CD206+ M2); type: in vivo, rat; conditions: POST group; vehicle mainly M1, no M2 detected
Protocol: The analysis of microglia polarization was performed by evaluating the percentage of CD32+ and CD206+ cells, respectively M1 and M2 phenotypes marker, of the total microglia cells in the lesioned SNc, using respectively CD32 or CD206 (Santa Cruz, 1:300) antibodies.
Since no significant differences in microglial activation were observed between vehicle-treated animals and animals that received HMR before the intra-striatal injection of 6-OHDA, microglia polarization was evaluated only in the groups treated with HMR after 6-OHDA infusion.

[5] = Food consumption and body weight monitoring; type: in vivo, rat; conditions: monitored daily throughout the experiments
Text: Food consumption and body weight changes were monitored daily.

[6] = tested on: microglia in the lesioned SNc; test: Neuroinflammation evaluation through microglia activation assessment (CD11b staining of lesioned SNc); type: in vivo, rat; design: key to Colburn's score (microglia morphology): Resting stage (score 0): microglial cells are ramified, well spaced-out, with a small cell body.; Stage 1 (score +): microglial cells are ramified, with a decreased intercellular space.; Stage 2 (score ++): microglial cells show a loss of ramification and increased density.; Stage 3 (score +++): microglial cells show short and think ramifications; conditions: for Colburn's score (microglia morphology): control group ++
Protocol: The evaluation of the 6-OHDA induced neuroinflammation was carried out via immunofluorescent staining of coronal SNc sections of both HMR-treated and control animals.
Microglia activation was assessed by observing sections of the lesioned SNc stained for CD11 b, under low and medium magnification (20×-40×), both quantitatively, by counting the microglial cells in the lesioned SNc, and qualitatively, analysing the morphological changes of the cells.
Mouse anti CD11b (MCA275R, Serotec, 1:300) primary antibody was used to assess microglia activation and density in the SNc. Anti-TH primary antibody was added for localization and cell count. Goat anti-mouse AlexaFluor488 and goat anti-rabbit AlexaFluor594 (Life Sciences, 1:300) were used as secondary antibodies.
Cell count was performed by analysing three different SNc sections, chosen according to rostro-caudal coordinates.
Morphological changes mirroring the state of activation were scored according to the Colburn scale. Cell density was assessed by counting CD11 b+ cells from a stack of 16 pictures (in a 0.04 mm^2 frame, 1 μm-thick, 40× magnification) taken from three discrete areas of the same SNc section.
Colburn's scale takes into account four activation stages, which differ for the cells morphology and density, and are summarized below.
Resting stage (score 0): microglial cells are ramified, well spaced-out, with a small cell body.
Stage 1 (score +): microglial cells are ramified, with a decreased intercellular space.
Stage 2 (score ++): microglial cells show a loss of ramification and increased density.
Stage 3 (score +++): microglial cells show short and think ramifications.

[7] = PRE group, day 28 post-surgery, same in HMR-treated and control animals

concentration at 4 weeks [3]: 0.92 ± 0.74 ng/mL
Structure (SMILES): COc1cc(CC2C(=O)OCC2C(O)c2ccc(O)c(OC)c2)ccc1O (centres unmarked) [HMR, 7-hydroxymatairesinol]
Plasma GSH/GSSG ratio versus vehicle-treated animals [1]: trend toward an increased GSH/GSSG ratio
Reduction of TH+ terminal loss in lesioned striatum versus control ([2]; POST group: HMR 10 mg/Kg per day for 4 weeks after 6-OHDA, day 28, p<0.05): about 32%
Reduction of the 6-OHDA induced loss of TH+ neurons in lesioned SNc versus vehicle ([2]; POST group: HMR 10 mg/Kg per day for 4 weeks after 6-OHDA, day 28, p=0.055): about 20%
TH+ neurons depletion in the SNc, lesioned side versus contralateral hemisphere [2, 7]: up to 55%
TH+ terminals loss in the striatum, lesioned side [2, 7]: ≤ 65%
Nigrostriatal damage (striatal or SNc level) versus vehicle-treated animals ([2]; PRE group: HMR 10 mg/Kg per day in food for 4 weeks before 6-OHDA): no differences in nigrostriatal damage
Microglia polarization phenotype (M1 CD32+ / M2 CD206+) [4]: mainly oriented toward the neuroprotective, M2 (CD11b+/CD206+) phenotype
Food intake or weight gain, treated versus untreated rats [5]: No differences
Colburn's score (microglia morphology) ([6]; POST group (HMR after 6-OHDA)): +
Density of CD11b+ cells in the SNc ([6]; POST group, vehicle-treated group 750 cells/mm^2, significant decrease): 550 cells/mm^2
Microglial cell count versus vehicle-treated animals ([6]; PRE group): no differences in the microglial cell count
Colburn's score (microglia morphology) ([6]; PRE group (HMR before 6-OHDA)): ++
Number of CD11b+ cells per mm^2 of SNc ([6]; PRE group, average, both HMR and vehicle groups): 750 cells/mm^2
